Measured values published in patent US12606548B2, “Fungicidal oxadiazoles” (FMC CORPORATION, priority 2019, dated 2026).

Assays:
[1] = tested on: Phakopsora pachyrhizi; test: Test A: test suspension sprayed on soybean seedlings, inoculated next day with Phakopsora pachyrhizi (Asian soybean rust), visual disease rating; format: in vivo; conditions: for Test A rating (% disease control): relative to the controls
Excerpt: General protocol for preparing test suspensions for Tests A-C: the test compounds were first dissolved in acetone in an amount equal to 3% of the final volume and then suspended at the desired concentration (in ppm) in acetone and purified water (50/50 mix by volume) containing 250 ppm of the surfactant PEG400 (polyhydric alcohol esters). The resulting test suspensions were then used in Tests A-C. The test suspension was sprayed to the point of run-off on soybean seedlings. The following day the seedlings were inoculated with a spore suspension of Phakopsora pachyrhizi (the causal agent of Asian soybean rust) and incubated in a saturated atmosphere at 22° C., for 24 h and then moved to a growth chamber at 22° C., for 8 days, after which time visual disease ratings were made. […] A dash (-) indicates the compound was not tested. The test suspensions were sprayed at the concentration listed in the column “Rate in ppm”, unless otherwise indicated.

[2] = tested on: Puccinia recondita f. sp. tritici; test: Test C: test suspension sprayed on wheat seedlings, inoculated next day with Puccinia recondita f. sp. tritici (wheat leaf rust), visual disease rating; format: in vivo; conditions: for Test C rating (% disease control): relative to the controls
Excerpt: General protocol for preparing test suspensions for Tests A-C: the test compounds were first dissolved in acetone in an amount equal to 3% of the final volume and then suspended at the desired concentration (in ppm) in acetone and purified water (50/50 mix by volume) containing 250 ppm of the surfactant PEG400 (polyhydric alcohol esters). The resulting test suspensions were then used in Tests A-C. The test suspension was sprayed to the point of run-off on wheat seedlings. The following day the seedlings were inoculated with a spore suspension of Puccinia recondita f. sp. tritici; (the causal agent of wheat leaf rust) and incubated in a saturated atmosphere at 20° C., for 24 h, and then moved to a growth chamber at 20° C., for 6 days, after which time visual disease ratings were made. […] A dash (-) indicates the compound was not tested. The test suspensions were sprayed at the concentration listed in the column “Rate in ppm”, unless otherwise indicated.

1-[[4-[5-(trifluoromethyl)-1,2,4-oxadiazol-3-yl]phenyl]methyl]-1H-pyrazolo[3,4-b]pyridine [Compound 147]
Test A disease control rating ([1]; 10 ppm test suspension): 100%
Test C disease control rating ([2]; 10 ppm test suspension): 68%

3-[5-[(4-bromo-1H-pyrazol-1-yl)methyl]-2-thienyl]-5-(trifluoromethyl)-1,2,4-oxadiazole [Compound 71]
Test A disease control rating ([1]; 10 ppm test suspension): 100%
Test C disease control rating ([2]; 10 ppm test suspension): 74%

6-chloro-2-[[4-[5-(trifluoromethyl)-1,2,4-oxadiazol-3-yl]phenyl]methyl]-3(2H)-pyridazinone [Compound 4]
Test A disease control rating ([1]; 50 ppm test suspension): 100%
Test C disease control rating ([2]; 50 ppm test suspension): 100%

COc1ccc(C(O)c2ccc(-c3noc(C(F)(F)F)n3)cc2)cc1 (racemic) [compound 309]
Test A disease control rating ([1]; 50 ppm test suspension): 100%
Test C disease control rating ([2]; 50 ppm test suspension): 68%

CCOC(=O)C1=NOC(Cc2ccc(-c3noc(C(F)(F)F)n3)s2)C1 (racemic) [compound 366]
Test A disease control rating ([1]; 50 ppm test suspension): 100%
Test C disease control rating ([2]; 50 ppm test suspension): 100%

O=C(O)C1=NOC(Cc2ccc(-c3noc(C(F)(F)F)n3)s2)C1 (racemic) [compound 367]
Test A disease control rating ([1]; 50 ppm test suspension): 96%
Test C disease control rating ([2]; 50 ppm test suspension): 67%

CNC(=O)C1=NOC(Cc2ccc(-c3noc(C(F)(F)F)n3)s2)C1 (racemic) [compound 368]
Test A disease control rating ([1]; 50 ppm test suspension): 100%
Test C disease control rating ([2]; 50 ppm test suspension): 100%

CCNC(=O)C1=NOC(Cc2ccc(-c3noc(C(F)(F)F)n3)s2)C1 (racemic) [compound 369]
Test A disease control rating ([1]; 50 ppm test suspension): 100%
Test C disease control rating ([2]; 50 ppm test suspension): 100%

C#CCNC(=O)C1=NOC(Cc2ccc(-c3noc(C(F)(F)F)n3)s2)C1 (racemic) [compound 429]
Test A rating (% disease control) ([1]; Rate 50 ppm test suspension): 100%
Test C rating (% disease control) ([2]; Rate 50 ppm test suspension): 100%

CCN(CC)C(=O)C1=NOC(Cc2ccc(-c3noc(C(F)(F)F)n3)s2)C1 (racemic) [compound 430]
Test A rating (% disease control) ([1]; Rate 50 ppm test suspension): 100%
Test C rating (% disease control) ([2]; Rate 50 ppm test suspension): 100%

CN(C)C(=O)C1=NOC(Cc2ccc(-c3noc(C(F)(F)F)n3)s2)C1 (racemic) [compound 460]
Test A rating (% disease control) ([1]; Rate 50 ppm test suspension): 100%
Test C rating (% disease control) ([2]; Rate 50 ppm test suspension): 99%

COCCNC(=O)C1=NOC(Cc2ccc(-c3noc(C(F)(F)F)n3)s2)C1 (racemic) [compound 461]
Test A rating (% disease control) ([1]; Rate 50 ppm test suspension): 100%
Test C rating (% disease control) ([2]; Rate 50 ppm test suspension): 100%

CCCOC(=O)c1cnn(C(C)c2ccc(-c3noc(C(F)(F)F)n3)s2)c1 (racemic) [compound 493]
Test A rating (% disease control) ([1]; Rate 10 ppm test suspension): 100%
Test C rating (% disease control) ([2]; Rate 10 ppm test suspension): 100%

FC(F)(F)c1nc(-c2ccc(Cn3ccc4ncccc43)cc2)no1 [Compound 136, 1-[[4-[5-(trifluoromethyl)-1,2,4-oxadiazol-3-yl]phenyl]methyl]-1H-pyrrolo[3,2-h]pyridine]
Test A disease control rating ([1]; 10 ppm test suspension): 100%
Test A disease control rating ([1]; 50 ppm test suspension): 100%
Test C disease control rating ([2]; 10 ppm test suspension): 68%
Test C disease control rating ([2]; 50 ppm test suspension): 94%

COC(=O)c1ccc2c(c1)nnn2Cc1ccc(-c2noc(C(F)(F)F)n2)cc1 [compound 22]
Test A disease control rating ([1]; 10 ppm test suspension): 100%
Test C disease control rating ([2]; 10 ppm test suspension): 96%

CCOC(=O)c1cc(C)n(Cc2ccc(-c3noc(C(F)(F)F)n3)cc2)n1 [compound 110]
Test A disease control rating ([1]; 10 ppm test suspension): 100%
Test C disease control rating ([2]; 10 ppm test suspension): 91%

COCCNC(=O)c1cc(C)n(Cc2ccc(-c3noc(C(F)(F)F)n3)cc2)n1 [compound 183]
Test A disease control rating ([1]; 10 ppm test suspension): 100%
Test C disease control rating ([2]; 10 ppm test suspension): 100%

COC(=O)c1cnn(Cc2ccc(-c3noc(C(F)(F)F)n3)s2)c1 [compound 188]
Test A disease control rating ([1]; 10 ppm test suspension): 100%
Test C disease control rating ([2]; 10 ppm test suspension): 100%

O=C(NCCCl)c1coc(Cc2ccc(-c3noc(C(F)(F)F)n3)cc2)n1 [compound 204]
Test A disease control rating ([1]; 10 ppm test suspension): 100%
Test C disease control rating ([2]; 10 ppm test suspension): 100%

CN(CC#N)C(=O)c1cnn(Cc2ccc(-c3noc(C(F)(F)F)n3)cc2)c1 [compound 379]
Test A rating (% disease control) ([1]; Rate 10 ppm test suspension): 100%
Test C rating (% disease control) ([2]; Rate 10 ppm test suspension): 97%
